From patent US11932634B2 (Gilead Sciences, Inc., priority 2021, dated 2024) come the findings set out here.

One assay concerns the target T1, human DGKα (Homo sapiens, UniProt P23743).
T1 construct: purchased Carna Biosciences'; inferred from the same paragraph's 'obtained from Carna Biosciences')
The assay can be described thus: DGKα Biochemical Activity Assay (ADP-Glo).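 Further: recombinant enzyme converting diacylglycerol in lipid micelles with ATP, ADP formed detected by luminescence, IC50 from a four-parameter nonlinear fit, geometric mean across experiments.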

The subject of assay [1] is Jurkat NFκB-luciferase cells. The experiment in a line: Jurkat NFκB-Luciferase Assay.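 Further: bioluminescence read-out normalized to DMSO basal activation and to maximum enhancement at 1 µM compound, rising signal indicating stronger T-cell activation through DGKα inhibition.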 In kind it is cell-based. Particulars: Homo sapiens; Jurkat NFκB-luciferase cells activated with anti-CD3 antibody (OKT3), 2.5 hrs at 37° C., One-Glo Ex; geometric mean; read-out: DGK NFKb Luciferase EC50.

T1 sequence (P23743 whole entry): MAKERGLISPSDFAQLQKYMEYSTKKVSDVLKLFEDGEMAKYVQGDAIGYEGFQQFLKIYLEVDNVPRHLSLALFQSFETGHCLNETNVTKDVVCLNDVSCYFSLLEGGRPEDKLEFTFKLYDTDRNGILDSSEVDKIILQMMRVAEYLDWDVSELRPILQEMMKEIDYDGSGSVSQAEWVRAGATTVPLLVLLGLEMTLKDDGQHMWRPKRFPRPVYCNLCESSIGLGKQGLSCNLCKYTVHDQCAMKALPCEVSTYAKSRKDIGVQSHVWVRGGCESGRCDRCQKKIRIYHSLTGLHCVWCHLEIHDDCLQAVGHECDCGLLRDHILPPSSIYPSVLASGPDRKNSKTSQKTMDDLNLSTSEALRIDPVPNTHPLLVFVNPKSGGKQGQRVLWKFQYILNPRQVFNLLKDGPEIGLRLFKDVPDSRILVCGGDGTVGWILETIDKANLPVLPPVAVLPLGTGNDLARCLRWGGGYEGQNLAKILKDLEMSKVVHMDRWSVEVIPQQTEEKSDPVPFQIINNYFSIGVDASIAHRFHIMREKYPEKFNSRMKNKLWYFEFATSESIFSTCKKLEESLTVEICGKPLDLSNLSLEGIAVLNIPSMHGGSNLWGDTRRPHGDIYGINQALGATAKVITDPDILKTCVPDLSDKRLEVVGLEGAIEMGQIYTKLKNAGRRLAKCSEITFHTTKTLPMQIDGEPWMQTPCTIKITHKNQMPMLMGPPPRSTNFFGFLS

As for `[2H]C([2H])([2H])n1c(=O)nc(N2CCCc3c2ccnc3C#CC(C)(C)C#N)c2c(F)c(F)ccc21` [Example 140, 4-[1-[5,6-difluoro-2-oxo-1-(trideuteriomethyl)quinazolin-4-yl]-3,4-dihydro-2H-1,6-naphthyridin-5-yl]-2,2-dimethyl-but-3-ynenitrile], the IC50 against human DGKα turned out to be 15.3 nM. In assay [1], the 50% effective concentration (EC50) is 7.54 nM. The corresponding values for `O=c1nc(N(CC(F)F)c2cc(F)cc(C#CC3(C(F)(F)F)CC3)c2)c2c(F)c(F)ccc2[nH]1` [Example 35, 4-[N-(2,2-difluoroethyl)-3-fluoro-5-[2-[1-(trifluoromethyl)cyclopropyl]ethynyl]anilino]-5,6-difluoro-1H-quinazolin-2-one] are 159 nM and 0.999 nM. On human DGKα, `CC(C)(C)C(O)C#Cc1cccc2c1CCCN2c1nc(=O)[nH]c2cccc(F)c12` (stereo not drawn) [Example 53, 5-fluoro-4-[5-(3-hydroxy-4,4-dimethyl-pent-1-ynyl)-3,4-dihydro-2H-quinolin-1-yl]-1H-quinazolin-2-one] gave an IC50 of 47.8 nM. In addition, in assay [1], the EC50 amounted to 2.74 nM. The corresponding values for `CC1(C#Cc2cncc3c2CCCCN3c2nc(=O)[nH]c3cccc(F)c23)CC1` [Example 152, 5-fluoro-4-(6-((1-methylcyclopropyl)ethynyl)-2,3,4,5-tetrahydro-1H-pyrido[3,4-b]azepin-1-yl)quinazolin-2(1H)-one] are 16.2 nM and 0.679 nM. For the molecule `CN(c1cccc(C#CC2(C(F)(F)F)CC2)c1)c1nc(=O)n(C)c2cc(Cl)ccc12` [Example 8, 7-chloro-1-methyl-4-[N-methyl-3-[2-[1-(trifluoromethyl)cyclopropyl]ethynyl]anilino]quinazolin-2-one], 12.4 nM corresponded to half-maximal inhibition on human DGKα (IC50). Also, the EC50 in assay [1] was 0.489 nM. On to `[2H]C([2H])([2H])n1c(=O)nc(N2CCOCc3c(C#CC4CCCN4C)cccc32)c2c(F)cccc21` (stereo not drawn) [Example 167, 5-fluoro-4-[6-[2-(1-methylpyrrolidin-2-yl)ethynyl]-3,5-dihydro-2H-4,1-benzoxazepin-1-yl]-1-(trideuteriomethyl)quinazolin-2-one], for which the IC50 against human DGKα is 18.5 nM. Besides, the concentration for a half-maximal effect (EC50) in assay [1] is 11 nM. `[2H]C([2H])([2H])n1c(=O)nc(N(CC(F)F)c2cc(F)cc(C#CC(C)(C)C#N)c2)c2c(F)c(F)ccc21` [Example 68, 4-[3-[2,2-difluoroethyl-[5,6-difluoro-2-oxo-1-(trideuteriomethyl)quinazolin-4-yl]amino]-5-fluoro-phenyl]-2,2-dimethyl-but-3-ynenitrile] gave an IC50 against human DGKα of 3.29 nM. The concentration for a half-maximal effect (EC50) in assay [1] turned out to be 2.53 nM.

The molecule `CN(c1cncc(C#CC2(C(F)(F)F)CC2)n1)c1nc(=O)[nH]c2cc(Cl)ccc12` [Example 13, 7-chloro-4-[methyl-[6-[2-[1-(trifluoromethyl)cyclopropyl]ethynyl]pyrazin-2-yl]amino]-1H-quinazolin-2-one] returned a half-inhibitory concentration (IC50) against human DGKα of 20.6 nM. Also, in assay [1], the half-maximal effective concentration (EC50) turned out to be 1.16 nM. `O=c1nc(N2CCCCc3c(C#CC4(C(F)(F)F)CC4)cncc32)c2c(F)c(F)ccc2[nH]1` [Example 151, 5,6-difluoro-4-(6-((1-(trifluoromethyl)cyclopropyl)ethynyl)-2,3,4,5-tetrahydro-1H-pyrido[3,4-b]azepin-1-yl)quinazolin-2(1H)-one] showed an IC50 on human DGKα of 18 nM. Besides, in assay [1], the EC50 is 0.954 nM. `O=c1nc(N2CCOCc3c(C#CC4(C(F)(F)F)CC4)cccc32)c2cc(F)cc(F)c2[nH]1` [Example 102] registered an IC50 at human DGKα of 14.7 nM. Moreover, in assay [1], the EC50 was found to be 1.75 nM. Turning to `CC(C)(C#Cc1cccc2c1COCCN2c1nc(=O)[nH]c2cccc(F)c12)C(F)(F)F` [Example 92, 5-fluoro-4-(6-(4,4,4-trifluoro-3,3-dimethylbut-1-yn-1-yl)-2,3-dihydrobenzo[e][1,4]oxazepin-1(5H)-yl)quinazolin-2(1H)-one], the concentration for half-maximal inhibition (IC50) on human DGKα amounted to 37.4 nM. Besides, the concentration for a half-maximal effect (EC50) in assay [1] was found to be 1.66 nM. The corresponding values for `CC(C)(C#Cc1cccc2c1COCCN2c1nc(=O)[nH]c2cccc(F)c12)NC(=O)C1(C(F)(F)F)CC1` [Example 158, N-(4-(1-(5-fluoro-2-oxo-1,2-dihydroquinazolin-4-yl)-1,2,3,5-tetrahydrobenzo[e][1,4]oxazepin-6-yl)-2-methylbut-3-yn-2-yl)-1-(trifluoromethyl)cyclopropane-1-carboxamide] are 9.31 nM and 11 nM.

On to `[2H]C([2H])([2H])n1c(=O)nc(N(CC(F)F)c2cccc(C#CC(C)(C)O)c2F)c2c(F)cccc21` [Example 111, 4-[N-(2,2-difluoroethyl)-2-fluoro-3-(3-hydroxy-3-methyl-but-1-ynyl)anilino]-5-fluoro-1-(trideuteriomethyl)quinazolin-2-one], for which the IC50 at human DGKα came to 3.11 nM. Besides, the half-maximal effective concentration (EC50) in assay [1] is 9.32 nM. For `[2H]C([2H])([2H])n1c(=O)nc(N2CCCOc3c(C#CC(C)(C)O)cccc32)c2c(F)cccc21` [Example 83, 5-fluoro-4-[9-(3-hydroxy-3-methyl-but-1-ynyl)-3,4-dihydro-2H-1,5-benzoxazepin-5-yl]-1-(trideuteriomethyl)quinazolin-2-one], the IC50 at human DGKα amounted to 13.1 nM. In addition, the half-maximal effective concentration (EC50) in assay [1] was found to be 16.2 nM. In turn, `[2H]C([2H])([2H])n1c(=O)nc(N(CC(F)F)c2ccnc(C#CC(C)(C)C#N)c2)c2c(F)c(F)ccc21` [Example 79, 4-[4-[2,2-difluoroethyl-[5,6-difluoro-2-oxo-1-(trideuteriomethyl)quinazolin-4-yl]amino]-2-pyridyl]-2,2-dimethyl-but-3-ynenitrile] yielded a half-maximal inhibitory concentration (IC50) at human DGKα of 2.95 nM. For the same molecule, the 50% effective concentration (EC50) in assay [1] turned out to be 11.3 nM. At human DGKα, `CN(c1cccc(C#CC(C)(C)O)c1)c1nc(=O)[nH]c2cc(Cl)ccc12` [Example 3, 7-chloro-4-[3-(3-hydroxy-3-methyl-but-1-ynyl)-N-methyl-anilino]-1H-quinazolin-2-one] gave a half-inhibitory concentration (IC50) of 96.3 nM. Also, in assay [1], the concentration giving a half-maximal response (EC50) is 10.7 nM. For the molecule `CC(F)(F)C1(C#Cc2nccc3c2CCCN3c2nc(=O)[nH]c3cccc(F)c23)CC1` [Example 132, 4-[5-[2-[1-(1,1-difluoroethyl)cyclopropyl]ethynyl]-3,4-dihydro-2H-1,6-naphthyridin-1-yl]-5-fluoro-1H-quinazolin-2-one], it took 66.1 nM to reach half-maximal inhibition against human DGKα (IC50). Further, the EC50 in assay [1] worked out at 9.96 nM. On the same counts, the results for `CC1(C#Cc2cccc3c2COCCN3c2nc(=O)[nH]c3c(F)ccc(F)c23)CC1` [Example 145] are 13 nM and 3.19 nM. On human DGKα, `CC(F)(F)C1(C#Cc2cccc3c2COCCN3c2nc(=O)[nH]c3cccc(F)c23)CC1` [Example 112, 4-(6-((1-(1,1-difluoroethyl)cyclopropyl)ethynyl)-2,3-dihydrobenzo[e][1,4]oxazepin-1(5H)-yl)-5-fluoroquinazolin-2(1H)-one] returned an IC50 of 23.6 nM. Further, the EC50 in assay [1] was 0.973 nM. The corresponding values for `O=c1nc(N2CCCc3c(C#CC4(C(F)(F)F)CC4)cccc32)c2c(F)c(F)ccc2[nH]1` [Example 40, 5,6-difluoro-4-[5-[2-[1-(trifluoromethyl)cyclopropyl]ethynyl]-3,4-dihydro-2H-quinolin-1-yl]-1H-quinazolin-2-one] are 13.4 nM and 0.399 nM. The molecule `CN(c1cc(F)cc(C#CC2(C(F)(F)F)CC2)c1)c1nc(=O)[nH]c2cc(Cl)ccc12` [Example 14, 7-chloro-4-[3-fluoro-N-methyl-5-[2-[1-(trifluoromethyl)cyclopropyl]ethynyl]anilino]-1H-quinazolin-2-one] registered an IC50 on human DGKα of 138 nM. The EC50 in assay [1] was 0.788 nM. The corresponding values for `O=c1nc(N2CCCCc3c(C#CC4(C(F)(F)F)CC4)cncc32)c2cc(F)ccc2[nH]1` [Example 165, 6-fluoro-4-(6-((1-(trifluoromethyl)cyclopropyl)ethynyl)-2,3,4,5-tetrahydro-1H-pyrido[3,4-b]azepin-1-yl)quinazolin-2(1H)-one] are 12.2 nM and 0.635 nM. The corresponding values for `[2H]C([2H])([2H])n1c(=O)nc(N(CC(F)F)c2cc(F)cc(C#CC(C)(C)O)c2)c2c(F)cccc21` [Example 38, 4-[N-(2,2-difluoroethyl)-3-fluoro-5-(3-hydroxy-3-methyl-but-1-ynyl)anilino]-5-fluoro-1-(trideuteriomethyl)quinazolin-2-one] are 16 nM and 11.1 nM. The corresponding values for `O=c1nc(N2CCCc3c(C#CC4(C(F)(F)F)CC4)cccc32)c2c(F)cccc2[nH]1` [Example 19, 5-fluoro-4-[5-[2-[1-(trifluoromethyl)cyclopropyl]ethynyl]-3,4-dihydro-2H-quinolin-1-yl]-1H-quinazolin-2-one] are 62.5 nM and 0.63 nM.

Molecule `[2H]C([2H])([2H])n1c(=O)nc(N(CC(F)F)c2cc(F)cc(-c3cnc(C4CC4)cn3)c2)c2c(F)c(F)ccc21` [Example 67, 4-[3-(5-cyclopropylpyrazin-2-yl)-N-(2,2-difluoroethyl)-5-fluoro-anilino]-5,6-difluoro-1-(trideuteriomethyl)quinazolin-2-one] yielded a half-maximal inhibitory concentration (IC50) on human DGKα of 7.57 nM. Besides, the half-maximal effective concentration (EC50) in assay [1] amounted to 0.527 nM. `CN(c1cccc(-c2ccc(N3CCCC3)nc2)c1)c1nc(=O)[nH]c2cc(Cl)ccc12` [Example 6, 7-chloro-4-[N-methyl-3-(6-pyrrolidin-1-yl-3-pyridyl)anilino]-1H-quinazolin-2-one] registered an IC50 against human DGKα of 84.5 nM. The EC50 in assay [1] was 2.24 nM. As to `O=c1nc(N2CCOCc3c(C#CC4(C(F)(F)F)CC4)cccc32)c2c(F)cccc2[nH]1` [Example 90], in assay [1], the EC50 was determined as 0.442 nM.

For `O=c1nc(N2CCCCc3c(C#CC4(C(F)(F)F)CC4)cncc32)c2c(F)cccc2[nH]1` [Example 153], the half-maximal effective concentration (EC50) in assay [1] is 1.62 nM. On the same count and under the same terms, the value for `[2H]C([2H])([2H])n1c(=O)nc(N2CCOCc3c(C#CC4(C(F)(F)F)CC4)cccc32)c2c(F)c(F)ccc21` [Example 96] was 0.559 nM; that for `CC1(C#Cc2cccc3c2COCCN3c2nc(=O)[nH]c3cccc(F)c23)CC1` [Example 154] was 0.783 nM.

Take `O=c1nc(N(CC(F)F)c2ccnc(C#CC3(C(F)(F)F)CC3)c2)c2c(F)c(F)ccc2[nH]1` [Example 78]: the EC50 in assay [1] worked out at 2.55 nM.
